Results: US9623030B2, “Tumescent antibiotic solution” (priority 2004, dated 2017)
In brackets after ≈: the same amount, converted by molar mass.

Key:
[1] = system: Staphyloccus aureus (MRSA) ATCC 33592; assay: Minimum Inhibitory Concentration (MIC) by dilution; conditions: Staphylococcus aureus, read-out: MIC
Description: Following inoculation, survival of test microorganisms was determined.

[2] = system: platelet aggregation; conditions: cited from earlier work
[3] = cited from earlier work
[4] = system: S. aureus; conditions: effect increases with greater duration of exposure; cited from earlier work
[5] = female, human, in vivo
Description: A clinical pharmacologic investigation was conducted to compare the pharmacokinetic advantages of two modes of systemic antibiotic delivery, Tumescent antibiotic delivery (TAD), which involves the delivery of a relatively large volume of an antibiotic-containing solution to the subcutaneous compartment, and intravenous antibiotic delivery (IVAD), which results in direct delivery of antibiotics to the blood stream, for prophylaxis of SSI.
With Institutional Review Board (IRB) approval, the absorption pharmacokinetics of tumescent antibiotic delivery (TAD) and intravenous antibiotic delivery (IVAD) were tested in human subjects and the antibiotic delivery modes were evaluated with respect to the area under the curve (AUC) of antibiotic concentration as a function of time and peak antibiotic concentration (Cmax) in serum and TISF. 4 female subjects participated in at least one study, one subject volunteered for 2 separate studies. 5 studies were conducted: 3 involved TAD to the abdomen, 1 involved TAD to the hips and outer thighs and 1 involved TAD to the breasts. […] Each of the 5 studies consisted of 2 to 3 pharmacokinetic procedures, for a total of 14 procedures. Any procedures conducted on an individual subject were separated by at least one week. In 13 procedures only IVAD or TAD, was used. […]

[6] = 1 gm given at the end of the surgery; 405 abdominal surgery patients; cited from earlier work

Cc1nnc(SCC2=C(C(=O)O)N3C(=O)[C@@H](NC(=O)Cn4cnnn4)[C@H]3SC2)s1 [Cefazolin]
MIC [1]: 125 to 250 µg/mL (≈ 275 to 550 µM)

CCN(CC)CC(=O)Nc1c(C)cccc1C [Lidocaine]
lidocaine concentration consistently inhibiting in-vitro platelet aggregation ([2]; aggregation induced by ADP, epinephrine and collagen): ≥ 0.5 mg/mL
effect on platelet aggregation ([2]; safe systemic concentrations (≦6 micrograms/ml)): no effect
maximum safe mg/kg dosage of tumescent lidocaine (estimated) ([3]; adults, TLA without liposuction): 30 mg/kg
dosage limitation approved by the FDA for infiltration local anesthesia ([3]; commercial lidocaine (1%) with epinephrine (1:100,000)): 7 mg/kg
duration of local anesthesia ([3]; routine local anesthesia): 2 h
bactericidal effect in vitro [4]: bactericidal

Cc1ncc([N+](=O)[O-])n1CCO [Metronidazole]
interval in which serum concentration of metronidazole exceeded 4 μg/ml [5]: 0 to 12 h

O=C(Cc1cccs1)N[C@@H]1C(=O)N2C(C(=O)[O-])=C(C[n+]3ccccc3)CS[C@H]12 [cephaloridine]
incidence of wound infection, intravenous vs intra incisional [6]: no significant difference
